According to US20120021939A1, “METHOD FOR PROFILING DRUG COMPOUNDS USING PROTEIN KINASE INHIBITORS” (priority 2009, published 2012):

System: Renal Cell Carcinoma patients
Assay: Clinical efficacy of Bevacizumab treatment by body imaging (size reduction of the tumor)
Assay type: in vivo, human
Description: (§1) A study is performed to generate kinase inhibition profiles from tumor tissues derived from Renal Cell Carcinoma patients treated with the drug Bevacizumab. The tissue is derived from tumor resection performed before the Bevacizumab treatment is started. Bevacizumab is an antibody that blocks the triggering of the Vascular Endothelial Growth Factor Receptors (VEGFR), and thereby blocks the VEGFR signal transduction pathways.
The activity of the targeted VEGFR or VEGFR pathway is assessed in lysates prepared from Bevacizumab responding and non-responding patients. Clinical efficacy is determined using body imaging, thereby monitoring the size reduction of the tumor. In this assessment the lysates are profiled for activities of kinases on a peptide microarray comprising peptide substrates for protein tyrosine kinases. […] It is shown that peptides that are inhibited by these VEGFR kinase inhibitors, thus reporting VEGFR activity, are found in the microarray analyses of the Bevacizumab responding patients, and are not inhibited in the analyses of the patients not responding to Bevacizumab (Table 1). […] As these inhibition profiles are generated from tumor tissue derived from the patients before the treatment is started, these inhibition profiles are predictive for the clinical response of these patients. In patients with an active VEGFR pathway this drug is clinically active. In patients with no active VEGFR pathway no clinical effects are provided.
as §1, with “before” for “before the”, “thereby it” for “thereby”, “pathways. In patients with an active VEGFR pathway this drug is expected to be clinically active.” for “pathways.”
The activity of the alternative pathway is assessed in lysates prepared from Bevacizumab responding and non-responding patients. Clinical efficacy is determined using body imaging, thereby monitoring the size reduction of the tumor. In this assessment the lysates are profiled for activities of kinases on a peptide microarray comprising peptide substrates for protein tyrosine kinases. These kinase activity profiling tests are performed both in the presence and absence of an IGFR kinase inhibitor. […] It is shown that peptides that are inhibited by this IGFR kinase inhibitor, thus reporting IGFR activity, are found in the analyses of the Bevacizumab responding patients, and are not inhibited in the analyses of the patients not responding to Bevacizumab (Table 2). […] As these inhibition profiles are generated from tumor tissue derived from the patients before the treatment is started, these inhibition profiles are predictive for clinical response. Therefore, in patients with no active VEGFR pathway or with an alternative pathway allowing the tumor growth independent of the VEGFR signalling pathway, no clinical effect is obtained.

With “Bevacizumab: antibody that blocks the triggering of the Vascular Endothelial Growth Factor Receptors (VEGFR); binds VEGF” the Clinical response (Example 1, Patient 1, Renal Cell Carcinoma) was “Responder”, the Clinical response (Example 1, Patient 2, Renal Cell Carcinoma) was “Responder” and the Clinical response (Example 1, Patient 3, Renal Cell Carcinoma) was “Non Responder”. For the same substance, the Clinical response (Example 1, Patient 4, Renal Cell Carcinoma) was “Non Responder”, the Clinical response (Example 2, Patient 1, Renal Cell Carcinoma) was “Responder” and the Clinical response (Example 2, Patient 2, Renal Cell Carcinoma) was “Responder”. For the same substance, the Clinical response (Example 2, Patient 3, Renal Cell Carcinoma) was “Non Responder” and the Clinical response (Example 2, Patient 4, Renal Cell Carcinoma) was “Non Responder”.
